# According to US20230167088A1, “1-PYRAZINYLPYRAZOLYL-3-OXYALKYL ACIDS AND THEIR DERIVATIVES, AND THEIR USE FOR CONTROL OF UNDESIRED PLANT GROWTH” (BAYER AKTIENGESELLSCHAFT, priority 2020, published 2023):
# Assays:
# ALOMY [1] = experiment: Herbicidal post-emergence action 1a (greenhouse pots, visual rating); assay type: in vivo, Alopecurus myosuroides; conditions: Dosage 80 g/ha; rated visually about 3 weeks after treatment; 100% = plants have died, 0% = like control plants
# Summary of the method: (§1)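 Weeds and crops sown in sandy loam in greenhouse pots were sprayed post-emergence at the one-leaf stage (2–3 weeks after sowing) with WP or EC formulations plus 0.5% additive at 600 l/ha water, 320 and/or 80 g/ha. About 3 weeks later damage was rated visually against untreated controls (0% = no effect, 100% = dead).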
# ECHCG [2] = experiment: as above; assay type: in vivo, Echinochloa crus-galli; conditions: Dosage 80 g/ha; rated visually about 3 weeks after treatment; 100% = plants have died, 0% = like control plants
# Summary of the method: as §1
# PHBPU [3] = experiment: as above; assay type: in vivo, Pharbitis purpurea; conditions: dosage 80 g/ha, visual rating about 3 weeks after treatment
# Summary of the method: as §1
# POAAN [4] = experiment: Herbicidal post-emergence action 1b (twin sowing, 1280 g/ha); assay type: in vivo, Poa annua; conditions: dosage 1280 g/ha, visual rating about 3 weeks after treatment
# Summary of the method: (§2)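 Twin-sown mono- and dicot weeds in sandy loam were sprayed post-emergence at the one-leaf stage, 2–3 weeks after sowing, with WP or EC formulations in water plus 0.5% additive at 600 L/ha. After about 3 weeks in the greenhouse, activity was rated visually against untreated controls (0% = like control, 100% = plants dead).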
# DIGSA [5] = experiment: as above; assay type: in vivo, Digitaria sanguinalis; conditions: dosage 1280 g/ha, visual rating about 3 weeks after treatment
# Method: (§3) [table] b) Seeds of mono- and dicotyledonous weed plants are placed in plastic pots in sandy loam soil (twin sowing with one species each of mono- or dicotyledonous weed plants per pot), covered with soil and cultivated in a greenhouse under controlled growth conditions. 2 to 3 weeks after sowing, the test plants are treated at the one-leaf stage. The compounds of the invention, formulated in the form of wettable powders (WP) or as emulsion concentrates (EC), are applied to the green parts of the plants as aqueous suspension or emulsion with addition of 0.5% additive at a water application rate equivalent to 600 litres per hectare. After the test plants have been kept in the greenhouse under optimum growth conditions for about 3 weeks, the activity of the preparations is rated visually in comparison to untreated controls. For example, 100% activity=the plants have died, 0% activity=like control plants. Tables A16 to A21 below show the effects of selected compounds of the general formula (I) according to Tables 1 and 2 on various harmful plants and at an application rate corresponding to 1280 g/ha, which were obtained by the experimental procedure mentioned above.
# ECHCG [6] = experiment: as above; assay type: in vivo, Echinochloa crus-galli; conditions: dosage 1280 g/ha, visual rating about 3 weeks after treatment
# Summary of the method: as §2
# ABUTH = experiment: as above; assay type: in vivo, Abutilon theophrasti; conditions: dosage 1280 g/ha, visual rating about 3 weeks after treatment
# Method: as §3
# MATIN [7] = experiment: as above; assay type: in vivo, Matricaria inodora; conditions: dosage 1280 g/ha, visual rating about 3 weeks after treatment
# Summary of the method: as §2
# STEME [8] = experiment: as above; assay type: in vivo, Stellaria media; conditions: dosage 1280 g/ha, visual rating about 3 weeks after treatment
# Summary of the method: as §2
# ALOMY [9] = experiment: Herbicidal pre-emergence action 2a (greenhouse pots, visual scoring); assay type: in vivo, Alopecurus myosuroides; conditions: dosage 320 g/ha, visual scoring after about 3 weeks
# Summary of the method: (§4)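 Weed and crop seeds placed in pots and covered with soil; aqueous suspension or emulsion of WP/EC formulation applied to the soil surface before emergence (600 l/ha, 0.5% additive, 320 and/or 80 g/ha). Pots kept in the greenhouse about 3 weeks; visual percentage scoring.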
# AVEFA = experiment: as above; assay type: in vivo, Avena fatua; conditions: dosage 320 g/ha, visual scoring after about 3 weeks
# Summary of the method: as §4
# ECHCG [10] = experiment: as above; assay type: in vivo, Echinochloa crus-galli; conditions: dosage 320 g/ha, visual scoring after about 3 weeks
# From the text: (§5) [table] a) Seeds of monocotyledonous and dicotyledonous weed plants and crop plants are placed in plastic or organic plant pots and covered with soil. The compounds of the invention, formulated in the form of wettable powders (WP) or as emulsion concentrates (EC), are then applied onto the surface of the covering soil as aqueous suspension or emulsion with addition of 0.5% additive at a water application rate of 600 1/ha (converted). After the treatment, the pots are placed in a greenhouse and kept under good growth conditions for the trial plants. After about 3 weeks, the effect of the preparations is scored visually in comparison with untreated controls as percentages. For example, 100% activity=the plants have died, 0% activity=like control plants. Tables B1 to B15 below show the effects of selected compounds of the general formula (I) according to Tables 1 and 2 on various harmful plants and an application rate corresponding to 320 g/ha and/or 80 g/ha, which were obtained by the experimental procedure mentioned above.
# LOLRI = experiment: as above; assay type: in vivo, Lolium rigidum; conditions: dosage 320 g/ha, visual scoring after about 3 weeks vs untreated controls
# Summary of the method: as §4
# SETVI = experiment: as above; assay type: in vivo, Setaria viridis; conditions: dosage 320 g/ha, visual scoring after about 3 weeks vs untreated controls
# Summary of the method: as §4
# AMARE [11] = experiment: as above; assay type: in vivo, Amaranthus retroflexus; conditions: dosage 320 g/ha, visual scoring after about 3 weeks vs untreated controls
# Summary of the method: as §4
# MATIN [12] = experiment: as above; assay type: in vivo, Matricaria inodora; conditions: dosage 320 g/ha, visual scoring after about 3 weeks vs untreated controls
# Summary of the method: as §4
# PHBPU [13] = experiment: as above; assay type: in vivo, Pharbitis purpurea; conditions: dosage 320 g/ha, visual scoring after about 3 weeks vs untreated controls
# From the text: as §5
# VIOTR = experiment: as above; assay type: in vivo, Viola tricolor; conditions: dosage 320 g/ha, visual scoring after about 3 weeks vs untreated controls
# Summary of the method: as §4
# VERPE = experiment: as above; assay type: in vivo, Veronica persica; conditions: dosage 320 g/ha, visual scoring after about 3 weeks vs untreated controls
# Summary of the method: as §4
# POAAN [14] = experiment: Herbicidal pre-emergence action 2b (doubly sown, 1280 g/ha); assay type: in vivo, Poa annua; conditions: doubly sown pots, dosage 1280 g/ha, visual scoring after about 3 weeks
# Summary of the method: (§6)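 Weed seeds sown in sandy loam, two species per pot, covered with soil; compounds as WP or EC applied to soil surface as aqueous suspension/emulsion with 0.5% additive at 600 L/ha water. Greenhouse growth; visual % activity vs untreated controls after about 3 weeks (100% = dead, 0% = like control).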
# DIGSA [15] = experiment: as above; assay type: in vivo, Digitaria sanguinalis; conditions: doubly sown pots, dosage 1280 g/ha, visual scoring after about 3 weeks
# Summary of the method: as §6
# ECHCG [16] = experiment: as above; assay type: in vivo, Echinochloa crus-galli; conditions: doubly sown pots, dosage 1280 g/ha, visual scoring after about 3 weeks
# Summary of the method: as §6
# AMARE [17] = experiment: as above; assay type: in vivo, Amaranthus retroflexus; conditions: doubly sown pots, dosage 1280 g/ha, visual scoring after about 3 weeks
# Summary of the method: as §6
# MATIN [18] = experiment: as above; assay type: in vivo, Matricaria inodora; conditions: doubly sown pots, dosage 1280 g/ha, visual scoring after about 3 weeks
# Summary of the method: as §6
# STEME [19] = experiment: as above; assay type: in vivo, Stellaria media; conditions: doubly sown pots, dosage 1280 g/ha, visual scoring after about 3 weeks
# Summary of the method: as §6
structure (smiles),measurement,setting,value
COCCOC(=O)COc1nn(-c2cnccn2)c(-c2ccc(F)nc2)c1Br [Example I-68],Post-emergence action against ALOMY in %,ALOMY [1],80%
same,Post-emergence action against ECHCG in %,ECHCG [2],80%
same,Post-emergence action against PHBPU in %,PHBPU [3],80%
same,Post-emergence action at 1280 g/ha against POAAN in %,POAAN [4],100%
same,Post-emergence action at 1280 g/ha against DIGSA in %,DIGSA [5],100%
same,Post-emergence action at 1280 g/ha against ECHCG in %,ECHCG [6],100%
same,Post-emergence action at 1280 g/ha against ABUTH in %,ABUTH,100%
same,Post-emergence action at 1280 g/ha against MATIN in %,MATIN [7],90%
same,Post-emergence action at 1280 g/ha against STEME in %,STEME [8],100%
same,Pre-emergence action against ALOMY in %,ALOMY [9],100%
same,Pre-emergence action against AVEFA in %,AVEFA,90%
same,Pre-emergence action against ECHCG in %,ECHCG [10],90%
same,Pre-emergence action against LOLRI in %,LOLRI,80%
same,Pre-emergence action against SETVI in %,SETVI,100%
same,Pre-emergence action against AMARE in %,AMARE [11],100%
same,Pre-emergence action against MATIN in %,MATIN [12],90%
same,Pre-emergence action against PHBPU in %,PHBPU [13],80%
same,Pre-emergence action against VIOTR in %,VIOTR,90%
same,Pre-emergence action against VERPE in %,VERPE,90%
same,Pre-emergence action at 1280 g/ha against POAAN in %,POAAN [14],100%
same,Pre-emergence action at 1280 g/ha against DIGSA in %,DIGSA [15],100%
same,Pre-emergence action at 1280 g/ha against ECHCG in %,ECHCG [16],100%
same,Pre-emergence action at 1280 g/ha against AMARE in %,AMARE [17],100%
same,Pre-emergence action at 1280 g/ha against MATIN in %,MATIN [18],100%
same,Pre-emergence action at 1280 g/ha against STEME in %,STEME [19],100%
